According to patent EP0193189A1, “Novel compound, its production and insecticidal and acaricidal composition containing it as an active ingredient” (SUMITOMO CHEMICAL COMPANY, LIMITED, priority 1985, dated 1986):
Values after ≈ are worked out from the molar mass of the structure shown. Where two headings read alike, the source gives them in different places.

Key:
Format in all cases: in vivo
[1] = tested on: brown rice planthoppers (Nila^parvata luqens); assay: Test Example 7: spray on potted rice plants, brown rice planthopper, residual effect; conditions: 20 h
Procedure: The emulsifiable concentrates of the following compounds and control compounds obtained according to Formulation example 2 were each diluted with water one thousand times (corresponding to 100 ppm) and each of thus prepared solutions was sprayed at the rate of 20 ml/2 pots to the rice plant seedlings planted in Wagner pots having a surface area of one ten thousandth are. After air-drying, the treated plants were covered with the iron wire cages, and about 15 adults of brown rice planthoppers (Nila^parvata luqens) were liberated thereto. Further, about 15 adults thereof were also liberated thereto 4 days after the application to examine the residual effects. Twenty hours after each liberation, the dead and alive adults were examined to calculate the mortality.

[2] = tested on: tobacco cutworms (Spodoptera litura); assay: Test Example 2: tobacco cutworm larvae on treated artificial feed; conditions: for mortality at 150 ppm: Spodoptera litura, 144 h
Source text: The emulsifiable concentrates of the following present compounds obtained according to Formulation example 2 were each diluted with water to obtain respective 667 times dilution aqueous solutions (corresponding to 150 ppm) containing said compounds, respectively. Two ml of thus diluted solutions were impregnated into the artificial feeds (13 g) for tobacco cutworms (Spodoptera litura) and thus prepared feeds were placed in polyethylene cups of 11 cm in diameter, respectively. Ten of the 4th instar larvae were liberated thereon.
Six days after, the dead and alive of the larvae were examined to calculate the mortality (two replications).

[3] = tested on: carmine spider mite (Tetranychus cinnabarinus); assay: Test Example 8: carmine spider mite on potted kidney bean, degree of damage; design: key: -: No damage is observed.; +: Slight damage is observed.; ++: The same damage as in the untreated plot is observed; conditions: 500 ppm spray 10 ml/pot plus 2 ml soil treatment; after 8 days
Procedure: The female adults of carmine spider mite (Tetranychus cinnabarinus) were put at a rate of 10 adults/leaf on the leaves of potted kidney bean (at the primordial leaf stage) which had elapsed 7 days after sowing, and placed in a constant-temperature room kept at 25°C. After 6 days, the 200-fold aqueous dilute solutions (corresponding to 500 ppm), prepared from the emulsifiable concentrates of the following present compounds and control compounds prepared according to Formulation example 2, were each sprayed at a rate of 10 ml/pot on a turn table. At the same time, the soil in the pot was treated with 2 ml of each aqueous solution. After 8 days, the degree of damage of the plant by the mite was examined.
Criteria of the effect: • - : No damage is observed. • + : Slight damage is observed. • ++: The same damage as in the untreated plot is observed.

[4] = tested on: common mosquito (Culex pipiens pallens); assay: Test Example 1: common mosquito larvae in diluted emulsifiable concentrate, mortality and emergence inhibition; conditions: for mortality at 3.5 ppm / pest or weed control at 3.5 ppm: Culex pipiens; for mortality at 3.5 ppm: 24 h; for pest or weed control at 3.5 ppm: read-out: Inhibitory ratio of emergence
Procedure: The emulsifiable concentrates of the following present compounds obtained according to Formulation example 2 were each diluted with water so as to obtain respective aqueous solutions containing 3.5 ppm of said compounds, respectively. One hundred ml of thus diluted aqueous solutions were poured into respective polyethylene cups of 180 ml volume, and 20 of the last instar larvae of common mosquito (Culex pipiens pallens) were liberated thereto. After one day, the dead or alive of the larvae were examined.
Thereafter, the feed was added to respective cups and the number of emerged pupae of the respective cups was counted when all the pupae of no treatment group had emerged to calculate the inhibitory ratios of the emergence.
The mortality and the inhibitory ratio of the emergence are shown according to the following three criteria: • mortality: A; 90% or more, • B; less than 90% to 10%, • C; less than 10%. • inhibitory: A; 90% or more, ratio of • emergence B; less than 90% to 80% • C; less than 80%.

[5] = tested on: resistant strain of green rice leafhopper (Nephotetix cincticeps); assay: Test Example 3: rice seedling dip test, resistant green rice leafhopper; conditions: Nephotettix cincticeps, 24 h, rice seedlings dipped 1 minute; adults of resistant strain; after one day; read-out: LC50 value (ppm)
Procedure: The emulsifiable concentrates of the following present compounds and control compounds obtained according to Formulation example 2 were each diluted with water to a prescribed concentration, and rice seedlings (about 12 cm in length) were dipped for 1 minute in the resulting aqueous dilute solutions. After air-drying, the seedlings were placed in test tube, and 10 adults of a resistant strain of green rice leafhopper (Nephotetix cincticeps) were liberated in the tube. After one day, the dead and alive of the adults were examined to obtain LC50 (50% lethal concentration)(two replications).

[6] = tested on: houseflies (Musca domestica) of WHO strains; assay: Test Example 6: housefly filter paper and sucrose bait test; conditions: 0.7 ml on filter paper with sucrose bait, adult females, after 48 hours, read-out: LC50 value (ppm)
Procedure: On the bottom of a polyethylene cup of 5.5 cm- in diameter was placed a piece of filter paper of the same size as the bottom, and 0.7 ml of a test solution, prepared by diluting the emulsifiable concentrates of the following present compounds and control compounds prepared according to Formulation example 2 to a prescribed concentration with water, was added dropwise to the filter paper. Thirty milligrams of sucrose were uniformly placed on the filter paper as bait. Thereafter, 10 adult female houseflies (Musca domestica) of WHO strains were liberated in the cup, which was then covered with a lid. After 48 hours, the dead and alive were examined to obtain LC50 value (50% lethal concentration) (two replications).

[7] = tested on: rice stem borer (Chilo suppressalis); assay: Test Example 5: rice stem borer larvae on treated artificial feed; conditions: 1 ml solution in artificial feed, larvae 10 days old, read-out: LC50 value (ppm)
Source text: The emulsifiable concentrates of the following present compounds and control compounds obtained according to Formulation example 2 were each diluted with water to a prescribed concentration, and one ml each of thus prepared solutions was impregnated into the artificial feeds for rice stem borer (Chilo suppressalis) which had been previously prepared in polyethylene cups of 5.5 cm in diameter, respectively. Ten of the larvae of the 10 days old were liberated thereon. The dead and alive larvae were examined to obtain LC50 value (50% lethal concentration) (two replications).

[8] = tested on: brown rice planthopper (Nila^parvata luqens); assay: Test Example 4: rice seedling dip test, brown rice planthopper; conditions: 24 h; rice seedlings dipped 1 minute; adults; after one day; read-out: LC50 value (ppm)
Procedure: The emulsifiable concentrates of the-following present compounds and control compounds obtained according to Formulation example 2 were each diluted with water to a prescribed concentration, and the rice seedlings (about 12 cm in length) were dipped for 1 minute in the resulting aqueous dilute solutions. After air-drying, the seedlings were placed in a test tube, and 10 adults of brown rice planthopper (Nila^parvata luqens) were liberated in the tube. After one day, the dead and alive of the adults were examined to obtain LC50 value (50% lethal concentration)(two replications).

[9] = 100 ppm spray, 20 ml/2 pots, residual effect, twenty hours after liberation, read-out: Mortality (%) liberated 4 days after application
[10] = 100 ppm spray, 20 ml/2 pots, twenty hours after liberation, read-out: Mortality (%) liberated just after air-drying
[11] = 150 ppm solution, 2 ml in 13 g artificial feed, 4th instar larvae, six days after, read-out: Mortality (%)
[12] = 3.5 ppm, 20 last instar larvae, after one day, read-out: Mortality
[13] = 3.5 ppm, counted when all pupae of no treatment group had emerged

Compound | mortality at 150 ppm [2, 11] | Degree of damage [3] | mortality at 3.5 ppm [4, 12] | pest or weed control at 3.5 ppm [4, 13] | LC50 [5] | LC50 [6] | further results
C=CC(C)(CCCc1cccc(Oc2ccccc2)c1)c1ccc(OCC)cc1 (stereo not drawn) [(1), 3-(4-ethoxyphenyl)-3-methyl-6-(3-phenoxyphenyl)-l-hexene] | 100% | - ~ + | > 90% | > 90% |  |  | mortality at 100 ppm [1, 9]: 100%; mortality at 100 ppm [1, 10]: 100%
C=CC(C)(CCCc1ccc(F)c(Oc2ccccc2)c1)c1ccc(OCC)cc1 (stereo not drawn) [(2)] | 100% |  | > 90% | > 90% | 80 µg/mL (≈ 198 µM) |  | mortality at 100 ppm [1, 9]: 100%; mortality at 100 ppm [1, 10]: 100%
C#CC(C)(CCCc1ccc(F)c(Oc2ccccc2)c1)c1ccc(OC)cc1 (stereo not drawn) [(5)] | 100% |  | > 90% | > 90% | 56 µg/mL (≈ 144 µM) | 13 µg/mL (≈ 33.5 µM) | 
C#CC(C)(CCCc1ccc(F)c(Oc2ccccc2)c1)c1ccc(OC(F)F)cc1 (stereo not drawn) [(6)] | 100% |  | > 90% | > 90% | 36 µg/mL (≈ 84.8 µM) | 15 µg/mL (≈ 35.3 µM) | LC50 [7]: 1.9 µg/mL (≈ 4.48 µM)
C#CC(C)(CCCc1cccc(Oc2ccccc2)c1)c1ccc(OCC=C)cc1 (stereo not drawn) [(7), 3-(4-allyloxyphenyl)-3-methyl-6-(3-phenoxyphenyl)-1-hexyne] |  | - |  | > 90% |  |  | mortality at 100 ppm ([1]; read-out: Mortality (%) liberated 4 days after application): 93%; mortality at 100 ppm ([1]; read-out: Mortality (%) liberated just after air-drying): 100%; mortality at 150 ppm [2]: 100%; mortality at 3.5 ppm [4]: 10 to 90%
C#CC(C)(CCCc1ccc(F)c(Oc2ccccc2)c1)c1ccc(F)cc1 (stereo not drawn) [(9)] | 100% |  | > 90% | > 90% | 49 µg/mL (≈ 130 µM) |  | LC50 [7]: 4.2 µg/mL (≈ 11.2 µM)
C#CC(C)(CCCc1ccc(F)c(Oc2ccccc2)c1)c1ccc(OCC)c(Cl)c1 (stereo not drawn) [(11)] | 100% |  | > 90% | > 90% | 49 µg/mL (≈ 112 µM) | 12 µg/mL (≈ 27.5 µM) | LC50 [7]: 2.3 µg/mL (≈ 5.26 µM)
C#CC(C)(CCCc1ccc(F)c(Oc2ccccc2)c1)c1ccc2c(c1)OCO2 (stereo not drawn) [(12)] | 100% |  | > 90% | > 90% | 63 µg/mL (≈ 157 µM) | 13 µg/mL (≈ 32.3 µM) | 
C#CC(C)(CCCc1ccc(F)c(Oc2ccccc2)c1)c1ccc(C(F)(F)F)cc1 (stereo not drawn) [(13)] | 100% | - | > 90% | > 90% | 10 µg/mL (≈ 23.4 µM) |  | 
C#CC(C)(CCCc1cccc(Oc2ccccc2)c1)c1ccc(OC(F)F)cc1 (stereo not drawn) [(17), 3-(4-difluoromethoxyphenyl)-3-methyl-6-(3-phenoxyphenyl)-l-hexyne] | 100% |  | > 90% | > 90% | 68 µg/mL (≈ 167 µM) |  | LC50 [7]: 3.6 µg/mL (≈ 8.86 µM)
C#CC(C)(CCCc1cccc(Oc2ccccc2)n1)c1ccc(OCC)cc1 (stereo not drawn) [(18), 3-(4-ethoxyphenyl)-3-methyl-6-(6-phenoxypyridin-2-yl)-l-hexyne] | 100% | - ~ + | > 90% | > 90% |  |  | 
C#CC(C)(CCCc1ccc(F)c(Oc2ccccc2)n1)c1ccc(OCC)cc1 (stereo not drawn) [(20)] | 100% | - ~ + | > 90% | > 90% | 74 µg/mL (≈ 183 µM) |  | LC50 [8]: 25 µg/mL (≈ 62 µM)
C#CC(C)(CCCc1ccc(F)c(Nc2ccccc2)c1)c1ccc(OCC)cc1 (stereo not drawn) [(21)] | 100% |  | > 90% | > 90% | 24 µg/mL (≈ 59.8 µM) |  | LC50 [8]: 15 µg/mL (≈ 37.4 µM); LC50 [7]: 1.5 µg/mL (≈ 3.74 µM)
C#CC(C)(CCCc1ccc(F)c(Oc2ccccc2)c1)c1ccc(OC(F)F)c(Cl)c1 (stereo not drawn) [(27)] |  |  | 10 to 90% | > 90% | 31 µg/mL (≈ 67.6 µM) | 11 µg/mL (≈ 24 µM) | 
C#CC(C)(CCCc1ccc(F)c(Oc2ccc(Cl)cc2)c1)c1ccc(OCC)cc1 (stereo not drawn) [(34)] | 100% |  | > 90% | > 90% | 18 µg/mL (≈ 41.2 µM) |  | LC50 [7]: 4.2 µg/mL (≈ 9.61 µM)
C#CC(C)(CCCc1cccc(Oc2ccccc2)c1)c1ccc(F)cc1 (stereo not drawn) [(35)] | 100% |  | > 90% | > 90% | 93 µg/mL (≈ 259 µM) |  | 
C#CC(C)(CCCc1ccc(F)c(Oc2ccccc2)c1)c1ccc(C(F)(F)F)cc1 (stereo not drawn) [(37)] |  |  |  |  |  | 13 µg/mL (≈ 30.5 µM) | Mortality (%) ([2]; 150 ppm solution, 2 ml in 13 g artificial feed, 4th instar larvae, six days after, 8640 min): 100%; Mortality ([4]; 3.5 ppm, 20 last instar larvae, after one day, 1440 min): A (90% or more); Inhibitory ratio of emergence [4, 13]: A (90% or more)
C#CC(C)(CCCc1ccc(F)c(Oc2ccc(F)cc2)c1)c1ccc(OCC)cc1 (stereo not drawn) [(38)] | 100% |  | > 90% | > 90% | 1.9 µg/mL (≈ 4.52 µM) | 14 µg/mL (≈ 33.3 µM) | 
C#CC(C)(CCCc1ccc(F)c(Oc2ccccc2)c1)c1ccc(CC)cc1 (stereo not drawn) [(39)] | 100% | - ~ + | > 90% | > 90% | 21 µg/mL (≈ 54.3 µM) | 17 µg/mL (≈ 44 µM) | 
C#CC(CCCc1ccc(F)c(Oc2ccccc2)c1)c1ccc(OCC)cc1 (stereo not drawn) [(43)] | 100% | - ~ + | > 90% | > 90% | 74 µg/mL (≈ 190 µM) |  | 
CCC(C)c1ccccc1OC(=O)NC (stereo not drawn) [(C), BPMC, reference compound] |  |  |  |  | 190 µg/mL (≈ 917 µM) |  | mortality at 100 ppm [1, 9]: 6%; mortality at 100 ppm [1, 10]: 100%
Cc1cc(Cl)ccc1N=CN(C)C [(E), Chlordimeform, reference compound] |  | - ~ + |  |  |  |  | 
